Test results from patent US11084800B2 (Achillion Pharmaceuticals, Inc., priority 2017, dated 2021).

target: Human Factor D (Homo sapiens (Human), UniProt P00746); experiment: Human Factor D Assay; assay type: biochemical; settings: Factor D inhibition, assay of Example 10; read-out: IC5 (Stars)
In short: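 Thioester substrate Z-L-Lys-SBz (100 μM) with Ellman's reagent DTNB (100 μM) reports activity of 80 nM human serum-derived enzyme, kinetically at 405 nm over 30 min. Compound preincubated 5 min, room temperature, pH 7.5 Tris/1 M NaCl; IC50 by nonlinear fit of rates.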

Chain of Human Factor D (P00746 26-253): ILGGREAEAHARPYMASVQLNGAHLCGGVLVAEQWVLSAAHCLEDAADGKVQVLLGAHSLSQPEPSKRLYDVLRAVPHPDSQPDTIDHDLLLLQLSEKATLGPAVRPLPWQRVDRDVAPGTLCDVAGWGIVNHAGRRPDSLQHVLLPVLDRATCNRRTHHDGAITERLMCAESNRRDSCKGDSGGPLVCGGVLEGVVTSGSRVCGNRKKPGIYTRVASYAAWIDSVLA

SMILES | IC50 [nM]
CC(=O)c1nn(CC(=O)N2[C@H](C(=O)Nc3nc(Br)c(F)cc3C)C[C@@]3(Cc4nc(C)no4)C[C@@H]23)c2c(C)nc(-c3cnc(C)nc3)cc12 [Compound 423, (1R,3S,5R)-2-(2-(3-acetyl-7-methyl-5-(2-methylpyrimidin-5-yl)-1H-pyrazolo[3,4-c]pyridin-l-yl)acetyl)-N-(6-bromo-5-fluoro-3-methylpyridin-2-yl)-5-((3-methyl-1,2,4-oxadiazol-5-yl)methyl)-2-azabicyclo[3.1.0]hexane-3-carboxamide] | < 1000
CC(=O)c1nn(CC(=O)N2[C@H](C(=O)Nc3nc(Br)c(F)cc3C)C[C@@]3(Cc4nc(C)no4)C[C@@H]23)c2c(C)cc(-c3cnc(C)nc3)cc12 [Compound 424, (1R,3S,5R)-2-(2-(3-acetyl-7-methyl-5-(2-methylpyrimidin-5-yl)-1H-indazol-1-yl)acetyl)-N-(6-bromo-5-fluoro-3-methylpyridin-2-yl)-5-((3-methyl-1,2,4-oxadiazol-5-yl)methyl)-2-azabicyclo[3.1.0]hexane-3-carboxamide] | < 1000
CC(=O)c1nn(CC(=O)N2[C@H](C(=O)Nc3nc(C(F)(F)F)ccc3C)C[C@@]3(Cc4nc(C)no4)C[C@@H]23)c2c(C)cc(-c3cnc(C)nc3)cc12 [Compound 425, (1R,3S,5R)-2-(2-(3-acetyl-7-methyl-5-(2-methylpyrimidin-5-yl)-1H-indazol-1-yl)acetyl)-5-((3-methyl-1,2,4-oxadiazol-5-yl)methyl)-N-(3-methyl-6-(trifluoromethyl)pyridin-2-yl)-2-azabicyclo[3.1.0]hexane-3-carboxamide] | < 1000
CC(=O)c1cn(CC(=O)N2[C@H](C(=O)Nc3nc(Br)ccc3C)C[C@@]3(C)C[C@@H]23)c2c(C)cc(-c3cnc(C)nc3)cc12 [Compound 426, (1R,3S,5R)-2-(2-(3-acetyl-7-methyl-5-(2-methylpyrimidin-5-yl)-1H-indol-1-yl)acetyl)-N-(6-bromo-3-methylpyridin-2-yl)-5-methyl-2-azabicyclo[3.1.0]hexane-3-carboxamide] | < 1000
CC(=O)c1nn(CC(=O)N2[C@H](C(=O)NCc3cccc(Cl)c3F)C[C@@]3(Cc4nc(C)no4)C[C@@H]23)c2c(C)cc(-c3cnc(C)nc3)cc12 [Compound 427, (1R,3S,5R)-2-(2-(3-acetyl-7-methyl-5-(2-methylpyrimidin-5-yl)-1H-indazol-1-yl)acetyl)-N-(3-chloro-2-fluorobenzyl)-5-((3-methyl-1,2,4-oxadiazol-5-yl)methyl)-2-azabicyclo[3.1.0]hexane-3-carboxamide] | < 1000
CC(=O)c1nn(CC(=O)N2[C@H](C(=O)Nc3nc(Br)ccc3Cl)C[C@@]3(Cc4nc(C)no4)C[C@@H]23)c2c(C)cc(-c3cnc(C)nc3)cc12 [Compound 428, (1R,3S,5R)-2-(2-(3-acetyl-7-methyl-5-(2-methylpyrimidin-5-yl)-1H-indazol-1-yl)acetyl)-N-(6-bromo-3-chloropyridin-2-yl)-5-((3-methyl-1,2,4-oxadiazol-5-yl)methyl)-2-azabicyclo[3.1.0]hexane-3-carboxamide] | < 1000
CC(=O)c1nn(CC(=O)N2[C@H](C(=O)Nc3nc(Br)ccc3C)C[C@@]3(Cc4nnc(C)o4)C[C@@H]23)c2c(CF)cc(-c3cnc(C)nc3)cc12 [Compound 429, (1R,3S,5R)-2-(2-(3-acetyl-7-(fluoromethyl)-5-(2-methylpyrimidin-5-yl)-1H-indazol-1-yl)acetyl)-N-(6-bromo-3-methylpyridin-2-yl)-5-((5-methyl-1,3,4-oxadiazol-2-yl)methyl)-2-azabicyclo[3.1.0]hexane-3-carboxamide] | < 1000
CC(=O)c1nn(CC(=O)N2C[C@](C)(F)C[C@H]2C(=O)Nc2nc(Br)ccc2C)c2ccc(-c3cnc(C)nc3)cc12 [Compound 430, (2S,4R)-1-{2-[3-Acetyl-5-(2-methylpyrimidin-5-yl)indazol-1-yl]acetyl}-N-(6-bromo-3-methylpyridin-2-yl)-4-fluoro-4-methylpyrrolidine-2-carboxamide] | < 1000
Cc1ncc(-c2cc3c(C(N)=O)nn(CC(=O)N4[C@H](C(=O)Nc5nc(Br)c(F)cc5C)C[C@@]5(C)C[C@@H]45)c3c(C)n2)cn1 [Compound 431, 1-(2-((1R,3S,5R)-3-((6-bromo-5-fluoro-3-methylpyridin-2-yl)carbamoyl)-5-methyl-2-azabicyclo[3.1.0]hexan-2-yl)-2-oxoethyl)-7-methyl-5-(2-methylpyrimidin-5-yl)-1H-pyrazolo[3,4-c]pyridine-3-carboxamide] | < 1000
CC(=O)c1nn(CC(=O)N2C[C@](C)(F)C[C@H]2C(=O)Nc2nc(Br)ccc2C)c2c(C)nc(-c3cnc(C)nc3)cc12 [Compound 432, (2S,4R)-1-(2-(3-acetyl-7-methyl-5-(2-methylpyrimidin-5-yl)-1H-pyrazolo[3,4-c]pyridin-1-yl)acetyl)-N-(6-bromo-3-methylpyridin-2-yl)-4-fluoro-4-methylpyrrolidine-2-carboxamide] | < 1000
CC(=O)c1nn(CC(=O)N2C[C@](C)(F)C[C@H]2C(=O)Nc2nc(Br)ccc2C)c2c(C)cc(-c3cnc(C)nc3)cc12 [Compound 433, (2S,4R)-1-(2-(3-acetyl-7-methyl-5-(2-methylpyrimidin-5-yl)-1H-indazol-1-yl)acetyl)-N-(6-bromo-3-methylpyridin-2-yl)-4-fluoro-4-methylpyrrolidine-2-carboxamide] | < 1000
CC(=O)c1nn(CC(=O)N2[C@H](C(=O)NCc3cccc(Cl)c3F)C[C@@]3(Cc4nnc(C)o4)C[C@@H]23)c2c(C)cc(-c3cnc(C)nc3)cc12 [Compound 434, (1R,3S,5R)-2-(2-(3-acetyl-7-methyl-5-(2-methylpyrimidin-5-yl)-1H-indazol-1-yl)acetyl)-N-(3-chloro-2-fluorobenzyl)-5-((5-methyl-1,3,4-oxadiazol-2-yl)methyl)-2-azabicyclo[3.1.0]hexane-3-carboxamide] | < 1000
CC(=O)c1nn(CC(=O)N2[C@H](C(=O)Nc3nc(C(F)(F)F)ccc3C)C[C@@]3(Cc4nnc(C)o4)C[C@@H]23)c2c(C)cc(-c3cnc(C)nc3)cc12 [Compound 435, (1R,3S,5R)-2-(2-(3-acetyl-7-methyl-5-(2-methylpyrimidin-5-yl)-1H-indazol-1-yl)acetyl)-5-((5-methyl-1,3,4-oxadiazol-2-yl)methyl)-N-(3-methyl-6-(trifluoromethyl)pyridin-2-yl)-2-azabicyclo[3.1.0]hexane-3-carboxamide] | < 1000
Cc1ncc(-c2cc3c(C(N)=O)nn(CC(=O)N4C[C@H]5C[C@H]5[C@H]4C(=O)Nc4nc(Br)ccc4C)c3c(C)n2)cn1 [Compound 436, 1-(2-((1R,25,5S)-2-((6-bromo-3-methylpyridin-2-yl)carbamoyl)-3-azabicyclo[3.1.0]hexan-3-yl)-2-oxoethyl)-7-methyl-5-(2-methylpyrimidin-5-yl)-1H-pyrazolo[3,4-c]pyridine-3-carboxamide] | < 1000
CSCc1cc(F)c(Br)nc1NC(=O)[C@@H]1C[C@@]2(C)C[C@H]2N1C(=O)Cn1nc(C(C)=O)c2cc(-c3cnc(C)nc3)ccc21 [Compound 438, (1R,5R)-2-(2-(3-Acetyl-5-(2-methylpyrimidin-5-yl)-1H-indazol-1-yl)acetyl)-N-(6-bromo-5-fluoro-3-((methylthio)methyl)pyridin-2-yl)-5-methyl-2-azabicyclo[3.1.0]hexane-3-carboxamide] | < 1000
CC(=O)c1nn(CC(=O)N2C[C@H](F)C[C@H]2C(=O)Nc2cccc(I)n2)c2ccc(-c3cnc(C)nc3)cc12 [Compound 439, (2S,4R)-1-(2-(3-acetyl-5-(2-methylpyrimidin-5-yl)-1H-indazol-1-yl)acetyl)-4-fluoro-N-(6-iodopyridin-2-yl)pyrrolidine-2-carboxamide] | < 1000
CC(=O)c1nn(CC(=O)N2C[C@H](F)C[C@H]2C(=O)Nc2ccccn2)c2ccc(-c3cnc(C)nc3)cc12 [Compound 440, (2S,4R)-1-(2-(3-acetyl-5-(2-methylpyrimidin-5-yl)-1H-indazol-1-yl)acetyl)-4-fluoro-N-(pyridin-2-yl)pyrrolidine-2-carboxamide] | < 1000
CC(=O)c1nn(CC(=O)N2[C@H](C(=O)Nc3nc(Br)ccc3C)C[C@@]3(CNc4ccn(CC(F)(F)F)n4)C[C@@H]23)c2c(C)cc(-c3cnc(C)nc3)cc12 [Compound 441, (1R,3S,5R)-2-(2-(3-acetyl-7-methyl-5-(2-methylpyrimidin-5-yl)-1H-indazol-1-yl)acetyl)-N-(6-bromo-3-methylpyridin-2-yl)-5-(((1-(2,2,2-trifluoroethyl)-1H-pyrazol-3-yl)amino)methyl)-2-azabicyclo[3.1.0]hexane-3-carboxamide] | < 1000

same assay, conditions: Table 8; Factor D 80 nM, substrate Z-L-Lys-SBz; read-out: IC50

IC50 [nM] | SMILES
< 1000 | CC(=O)c1nn(CC(=O)N2[C@H](C(=O)Nc3nc(Br)ccc3C)C[C@@]3(CNC(=O)COCCOCCNC(=O)COCCOCCNC(=O)CC[C@H](NC(=O)CCCCCCCCCCCCCCCCC(=O)O)C(=O)O)C[C@@H]23)c2cnc(-c3cnc(C)nc3)cc12 [Compound 442, (S)-1-((1R,3S,5R)-2-(2-(3-acetyl-5-(2-methylpyrimidin-5-yl)-1H-pyrazolo[3,4-c]pyridin-1-yl)acetyl)-3-((6-bromo-3-methylpyridin-2-yl)carbamoyl)-2-azabicyclo[3.1.0]hexan-5-yl)-24-carboxy-3,12,21,26-tetraoxo-5,8,14,17-tetraoxa-2,11,20,25-tetraazatritetracontan-43-oic acid]
